# Experimental data reported in PMC12670396, “Crizotinib- or Ceritinib-Conjugated Platinum(IV) Prodrugs As Potent Multiaction Agents Inducing Antiproliferative Effects in 2D and 3D Cancer Cell Models” (Journal of Medicinal Chemistry, 2025).
# Assays:
# CT26 cell line = assay: MTT cytotoxic/antiproliferative activity, 72 h; assay type: cell-based, murine; conditions: Mus musculus
# CT26 and NCI-H2228 cells = assay: Extracellular HMGB1 (ELISA); assay type: cell-based; conditions: IC50 concentrations, 24 h
# Description: The amount of HMGB1 in the medium was determined using an enzyme-linked immunosorbent assay (ELISA).
# CT26 and NCI-H2228 cells were seeded in 48-well plates at a density of 5 × 10^4 cells/well and grown overnight. […] Aliquots of the supernatants were then withdrawn and processed using the HMGB1 Express ELISA kit (TECAN) according to the manufacturer’s instructions. The final absorbance, proportional to the HMGB1 amount, was read at 420 nm using a multimode SPARK reader (TECAN).
# RD = assay: MTT cytotoxic/antiproliferative activity, 72 h; assay type: cell-based, human; conditions: Homo sapiens, MTT, 72 h
# MRC-5 = assay: MTT cytotoxicity in noncancerous cells, 72 h; assay type: cell-based, human; conditions: Homo sapiens, MRC5, MRC-5, MTT
# Description: (§1) Growth inhibition activity in cancer cell lines was compared with the activity to inhibit the proliferation of normal (noncancerous) cells, namely MRC-5, IMR-90, hTERT-HPNE, and MCF10A cells. Selectivity indexes (SI) were calculated as (IC50 in noncancerous cells)/(average IC50 in cancer cells). […] We further assessed the toxicity of several of the compounds in hepatocyte-like cells (HLC) generated from human pluripotent cells.
# (§2) Cytotoxicity in hepatocyte-like cells (HLC). STEMdiff Hepatocyte Kit was used to generate HLC from human pluripotent stem cells. Cytotoxicity of several of the tested compounds in HLC was evaluated using the sulphorhodamine B assay.
# hTERT-HPNE = assay: MTT cytotoxicity in noncancerous cells, 72 h; assay type: cell-based, human; conditions: Homo sapiens
# Description: as §1, §2
# MCF10A = assay: MTT cytotoxicity in noncancerous cells, 72 h; assay type: cell-based, human; conditions: Homo sapiens, MCF-10A
# Description: as §1, §2
# IMR-90 = assay: MTT cytotoxicity in noncancerous cells, 72 h; assay type: cell-based, human; conditions: Homo sapiens, IMR-90, MTT
# Description: as §1, §2
# HCT116 = assay: MTT cytotoxic/antiproliferative activity, 72 h; assay type: cell-based, human; conditions: Homo sapiens, HCT-116; HCT116, MTT, 72 h
# A549 spheroids = assay: Cytotoxicity in 3D spheroids, CellTiter-Glo 3D; assay type: cell-based, human; conditions: Homo sapiens, A549 3D spheroids, 96 h
# Description: (§3) In the 3D structure, the gradients of gases, nutrients, and therapeutics play a role in the final cytotoxicity of a compound.
# (§4) A549 and NCI-H2228 cells were seeded in ultralow attachment, U-shape plates (Corning) at a density of 800 cells/well in the tumorsphere medium consisting of DMEM/F12 medium (Sigma), fibroblast growth factor (20 ng/mL; Sigma), epidermal growth factor 2 (10 ng mL^–1; Sigma), B27 supplement (1×; Gibco), bovine serum albumin, bovine serum albumin (BSA) (1.5 mg mL^–1; Sigma). […] CellTiter-Glo 3D viability assay was used for the experiment evaluation following the manufacturer’s instructions. The bioluminescence signal, proportional to the number of living cells, was measured using the luminescence reader SPARK, and IC50 values were calculated.
# NCI-H2228 spheroids = assay: Cytotoxicity in 3D spheroids, CellTiter-Glo 3D; assay type: cell-based, human; conditions: Homo sapiens, NCI-H2228 3D spheroids, 96 h
# Description: as §3, §4
# [1] = Cytotoxicity in hepatocyte-like cells, sulphorhodamine B assay; assay type: cell-based; conditions: hepatocyte-like cells from human pluripotent cells
# Description: as §1, §2
# ALK = biological target: T1, ALK (Homo sapiens, UniProt Q9HC35+Q9UM73); assay: Western blot of ALK phosphorylation state; assay type: cell-based; conditions: NCI-H2228 lysates, IC50 concentrations, 24 h
# T1 construct: Western blot detection of the ALK phosphorylation state in lysates of NCI-H2228 cells exposed to the tested compounds; endogenous in cells; host or cells: NCI-H2228
# Description: (§5) Whereas the signals of pALK and pMET are decreased in the presence of the tested compounds, the overall amount of ALK and MET is not markedly changed.
# (§6) NCI-H2228 cells were seeded in 6-well plates at a density of 2 × 10^5 cells/well and incubated overnight. […] The cells were then harvested and lysed using RIPA lysis buffer supplemented with protease and phosphatase inhibitors as recommended by the manufacturer. Protein extracts were resolved with SDS-PAGE, transferred to a PVDF membrane, and the respective proteins were detected with specific antibodies (anti-phosphoALK, anti-ALK, anti-phosphoMET, anti-MET, and anti-GADPH) and HRP-conjugated secondary antibodies. The signals were obtained with SignalFire ECL Reagent and recorded with an Amersham680 reader.
# MET = biological target: T2, MET (Homo sapiens, UniProt P08581); assay: Western blot of MET phosphorylation state; assay type: cell-based; conditions: NCI-H2228 lysates, IC50 concentrations, 24 h
# T2 construct: Western blot analysis of the phosphorylation state of ALK and MET; endogenous in cells; host or cells: NCI-H2228
# Description: as §5, §6
# MDA-MB-231 = assay: MTT cytotoxic/antiproliferative activity, 72 h; assay type: cell-based, human; conditions: Homo sapiens; MDA-MB-231, MTT, 72 h
# [2] = tested on: normal (noncancerous) cells MRC-5, IMR-90, hTERT-HPNE, MCF10A; assay: MTT, noncancerous cell lines (average, selectivity index); assay type: cell-based, human
# Description: as §1, with “pluripotent cells. […]” for “pluripotent cells.”
# A549 = assay: MTT cytotoxic/antiproliferative activity, 72 h; assay type: cell-based, human; conditions: Homo sapiens; A549, MTT, 72 h
# U87-MG = assay: MTT cytotoxic/antiproliferative activity, 72 h; assay type: cell-based, human; conditions: Homo sapiens, U-87 MG, MTT, 72 h
# Description: (§7) A panel of six cancer cell lines was used to evaluate the cytotoxic potential of the investigated compounds.
# as §2
# MMC2 = assay: MTT cytotoxicity in NER-deficient cells, 72 h; assay type: cell-based, Chinese hamster
# Source text: The cytotoxicity assay was also employed to determine whether DNA damage might be involved in the mechanism of action of the tested compounds. The Chinese hamster ovary MMC2 cell line harbors the ERCC3/XPB mutation, which renders it deficient in nucleotide excision repair (NER), whereas the parent line CHOK1 is proficient in this repair process. Thus, the MMC2 line is often more sensitive to agents causing DNA damage, especially NER-reparable DNA damage, than CHOK1. […] Phosphorylation of H2AX is a commonly used marker of DNA damage. […]
# CHOK1 = assay: MTT cytotoxicity in NER-proficient cells, 72 h; assay type: cell-based, Chinese hamster; conditions: Cricetulus griseus, CHO-K1
# Source text: The cytotoxicity assay was also employed to determine whether DNA damage might be involved in the mechanism of action of the tested compounds. The Chinese hamster ovary MMC2 cell line harbors the ERCC3/XPB mutation, which renders it deficient in nucleotide excision repair (NER), whereas the parent line CHOK1 is proficient in this repair process. Thus, the MMC2 line is often more sensitive to agents causing DNA damage, especially NER-reparable DNA damage, than CHOK1. […] Phosphorylation of H2AX is a commonly used marker of DNA damage.
# as §2
# [3] = tested on: panel of six cancer cell lines; assay: MTT, panel of six cancer cell lines (average, ranges); assay type: cell-based, human; conditions: Homo sapiens; average over six cancer cell lines; read-out: av cancer (average IC50 in cancer cells)
# Description: as §7, §2
# NCI-H2228 = assay: MTT cytotoxic/antiproliferative activity, 72 h; assay type: cell-based, human; conditions: Homo sapiens; NCI-H2228, MTT, 72 h
# T2 sequence (P08581 25-1390): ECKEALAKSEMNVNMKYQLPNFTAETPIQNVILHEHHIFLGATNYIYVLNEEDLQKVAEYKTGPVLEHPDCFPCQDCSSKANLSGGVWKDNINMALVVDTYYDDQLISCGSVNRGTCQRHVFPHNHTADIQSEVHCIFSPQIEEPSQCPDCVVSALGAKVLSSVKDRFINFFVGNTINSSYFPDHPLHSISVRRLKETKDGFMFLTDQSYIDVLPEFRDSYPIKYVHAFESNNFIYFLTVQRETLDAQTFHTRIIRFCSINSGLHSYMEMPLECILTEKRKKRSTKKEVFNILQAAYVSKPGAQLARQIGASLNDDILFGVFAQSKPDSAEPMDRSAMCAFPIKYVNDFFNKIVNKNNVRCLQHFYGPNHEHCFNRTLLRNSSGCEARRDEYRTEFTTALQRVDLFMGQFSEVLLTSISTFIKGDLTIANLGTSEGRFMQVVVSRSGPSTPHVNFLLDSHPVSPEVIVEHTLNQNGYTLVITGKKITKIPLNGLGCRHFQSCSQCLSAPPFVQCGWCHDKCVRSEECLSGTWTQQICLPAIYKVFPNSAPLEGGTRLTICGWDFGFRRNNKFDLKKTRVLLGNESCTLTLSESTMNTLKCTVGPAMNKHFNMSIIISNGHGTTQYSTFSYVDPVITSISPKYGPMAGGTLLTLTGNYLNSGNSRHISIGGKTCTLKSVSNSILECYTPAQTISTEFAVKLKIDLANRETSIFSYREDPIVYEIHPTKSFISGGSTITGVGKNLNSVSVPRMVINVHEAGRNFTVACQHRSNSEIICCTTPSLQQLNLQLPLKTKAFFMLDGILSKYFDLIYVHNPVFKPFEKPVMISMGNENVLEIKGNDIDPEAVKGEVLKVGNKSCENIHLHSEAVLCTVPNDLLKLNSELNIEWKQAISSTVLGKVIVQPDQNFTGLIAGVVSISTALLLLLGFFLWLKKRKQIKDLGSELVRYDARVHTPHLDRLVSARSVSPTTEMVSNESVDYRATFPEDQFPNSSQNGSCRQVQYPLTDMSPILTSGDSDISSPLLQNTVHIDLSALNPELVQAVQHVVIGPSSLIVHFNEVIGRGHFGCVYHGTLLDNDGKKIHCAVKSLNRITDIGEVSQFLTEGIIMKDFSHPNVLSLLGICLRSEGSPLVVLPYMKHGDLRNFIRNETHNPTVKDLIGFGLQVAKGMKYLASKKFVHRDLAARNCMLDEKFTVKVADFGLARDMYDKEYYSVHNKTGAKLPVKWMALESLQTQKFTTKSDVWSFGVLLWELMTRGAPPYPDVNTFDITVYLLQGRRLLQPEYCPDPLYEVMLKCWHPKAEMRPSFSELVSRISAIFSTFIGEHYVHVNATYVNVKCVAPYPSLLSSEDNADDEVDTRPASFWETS
# T1 sequence (Q9HC35+Q9UM73 fused): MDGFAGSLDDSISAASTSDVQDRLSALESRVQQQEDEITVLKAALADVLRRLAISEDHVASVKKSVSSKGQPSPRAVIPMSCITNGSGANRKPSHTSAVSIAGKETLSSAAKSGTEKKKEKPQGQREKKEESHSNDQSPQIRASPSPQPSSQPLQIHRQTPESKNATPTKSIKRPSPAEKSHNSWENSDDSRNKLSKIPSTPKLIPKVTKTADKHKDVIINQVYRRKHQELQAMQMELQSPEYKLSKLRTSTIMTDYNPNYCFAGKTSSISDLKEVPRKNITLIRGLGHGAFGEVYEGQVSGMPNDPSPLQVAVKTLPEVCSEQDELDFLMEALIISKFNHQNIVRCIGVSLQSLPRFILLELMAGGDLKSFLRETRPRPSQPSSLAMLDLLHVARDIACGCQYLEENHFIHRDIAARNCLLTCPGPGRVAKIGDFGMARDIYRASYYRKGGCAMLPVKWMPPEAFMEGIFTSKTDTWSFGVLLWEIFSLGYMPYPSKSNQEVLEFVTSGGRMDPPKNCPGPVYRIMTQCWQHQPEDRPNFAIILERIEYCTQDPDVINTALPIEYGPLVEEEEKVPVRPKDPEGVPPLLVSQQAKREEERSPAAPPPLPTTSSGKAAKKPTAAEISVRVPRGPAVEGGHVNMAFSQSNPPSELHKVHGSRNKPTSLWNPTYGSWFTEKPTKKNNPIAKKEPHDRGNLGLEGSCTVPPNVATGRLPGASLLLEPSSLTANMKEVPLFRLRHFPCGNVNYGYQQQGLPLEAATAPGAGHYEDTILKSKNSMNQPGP
smiles,measurement,setting,value
"COc1cccc2c1C(=O)c1c(O)c3c(c(O)c1C2=O)C[C@@](O)(C(=O)CO)C[C@@H]3O[C@H]1C[C@H](N)[C@H](O)[C@H](C)O1 [DOX, doxorubicin]",IC50,CT26 cell line,2.1 ± 0.3 µM
same,HMGB1 externalization relative to nontreated control,CT26 and NCI-H2228 cells,highest increase
"Cc1cc(Nc2ncc(Cl)c(Nc3ccccc3S(=O)(=O)C(C)C)n2)c(OC(C)C)cc1C1CCNCC1 [compound 5, ceritinib]",IC50,RD,1.5 ± 0.3 µM
same,IC50,MRC-5,2.2 ± 0.5 µM
same,IC50,hTERT-HPNE,4.1 ± 0.2 µM
same,IC50,MCF10A,3.4 ± 0.9 µM
same,IC50,IMR-90,3.7 ± 0.4 µM
same,IC50,HCT116,0.9 ± 0.2 µM
same,IC50,A549 spheroids,2.3 ± 0.8 µM
same,IC50,NCI-H2228 spheroids,0.75 ± 0.09 µM
same,IC50,CT26 cell line,1.2 ± 0.3 µM
same,IC50,[1],8 ± 3 µM
same,phosphorylation of ALK,ALK,inhibit the phosphorylation
same,phosphorylation of MET,MET,inhibit the phosphorylation
same,IC50,MDA-MB-231,1.4 ± 0.9 µM
same,IC50,"[2]; Homo sapiens, average over MRC-5, IMR-90, hTERT-HPNE, MCF10A, read-out: av norm (average IC50 in noncancerous cells)",3.4 µM
same,"SI, selectivity index",[2]; IC50(normal cells)/averageIC50(cancer cells),3.0
same,IC50,A549,0.9 ± 0.2 µM
same,IC50,U87-MG,1.1 ± 1 µM
same,IC50,"MMC2; Cricetulus griseus, MMC2 (NER deficient), MTT, 72 h",1.3 ± 0.3 µM
same,Index F,MMC2; IC50(CHOK1)/IC50(MMC2),1.08
same,IC50,CHOK1,1.4 ± 0.6 µM
same,IC50,[3],1.1 µM
same,IC50,NCI-H2228,0.51 ± 0.04 µM
